Laboratory results: patent publication US5081113A, “Novel 3-keto-steroids” (Roussel Uclaf, priority 1989, dated 1992)
Like-named read-outs stand apart in the source and are kept apart here.

What was measured:
[1] = test system: lipid peroxidation (MDA formation) in brain homogenates; experiment: Test of formation of malondialdehyde (MDA), non-enzymatic lipid peroxidation triggered by ferrous sulfate in brain homogenates; type: biochemical, S-D rats; conditions: brain homogenate, 60 minutes at 37° C.
Procedure: 1.1 MDA formation was measured on 10-fold diluted (V/V) homogenates of brains of S-D rats (200 g) prepared in Krebs buffer pH 7.4 under the conditions described in J. Biol. Chem., Vol. 262 (1987), p. 10438 to 10440. 1 ml of homogenate was incubated for 60 minutes at 37° C. in the presence of 25 microliters of ethanol or water or a mixture of the two depending on the product containing or not containing the test product, after the addition of 25 microliters of ferrous sulfate solution prepared immediately before use in water outgassed with argon (200 micromoles final). 0.25 ml of incubated mixture were withdrawn and 1.5 ml of 1% strength phosphoric acid, 0.25 ml of a solution containing 200 micromoles of deferoxamine (Desferal^.phi., Ciba Geigy) in water, 10 microliters of butylated hydroxy-toluene (BHT) at a concentration of 8.7 mg/ml in ethanol and 0.5 ml of thiobarbituric acid (TBA) at a concentration of 0.6% in water were added. The mixture was heated to 100° C. for 45 minutes and cooled. 4 ml of n-butanol were added and the mixture was centrifuged for 15 minutes at 4000 rpm and the OD of the supernatant fraction was then read at 535 nm. The reaction blanks in the absence of Fe^++ were incubated under the same conditions.

[2] = test system: lipid peroxidation (MDA formation) in rat liver microsomes; experiment: Test of formation of malondialdehyde (MDA), non-enzymatic lipid peroxidation triggered by ferrous sulfate in rat liver microsomes; type: biochemical, S-D rats; conditions: ferrous sulfate/ascorbate, pH 7.4, 15 minutes at 37° C.
Procedure: The reaction was stopped by adding 2 ml of a 1M solution of trichloroacetic acid in 0.25M hydrochloric acid containing 0.4% of thiobarbituric acid. The mixture was heated to 85° C. for 25 minutes, cooled and centrifuged for 15 minutes at 3500 rpm, and the OD of the supernatant fraction was then read at 535 nm. The reaction blanks in the absence of Fe^++ were performed at the same time. The percentage inhibition was calculated as above.

[3] = test system: lipid peroxidation (MDA formation) in rat liver microsomes; conditions: liver microsomes of phenobarbital-pretreated rats, NADPH/carbon tetrachloride, pH 7.4, 15 minutes at 37° C.

| Compound | percentage inhibition (MDA formation) ([1]; 1 * 10^-4 M) [%] | percentage inhibition (MDA formation) ([1]; 1 * 10^-5 M) [%] | percentage inhibition (MDA formation) ([1]; 5 * 10^-4 M) [%] | percentage inhibition (MDA formation) ([2]; 1*10^-5 M) [%] | percentage inhibition (MDA formation) ([2]; 1*10^-6 M) [%] | percentage inhibition (MDA formation) ([2]; 5*10^-6 M) [%] | percentage inhibition (MDA formation) ([3]; 1*10^-5 M) [%] | percentage inhibition (MDA formation) ([3]; 1*10^-6 M) [%] | percentage inhibition (MDA formation) ([3]; 5*10^-6 M) [%] | percentage inhibition (MDA formation) ([2]; 5*10^-5 M) [%] |
| --- | --- | --- | --- | --- | --- | --- | --- | --- | --- | --- |
| CCN(CC)c1ccc(N2CCN(CC#C[C@]3(O)CC[C@H]4[C@@H]5C=C(C)C6=CC(=O)C=C[C@]6(C)[C@H]5[C@@H](O)C[C@@]43C)CC2)nc1N(CC)CC [Example 3, 17α-[3-{4-[5,6-bis(diethylamino)-2-pyridyl]-1-piperazinyl}-1-propynyl]-6-methyl-Δ^1,4,6-androstatrien-11β,17β-diol-3-one] | 62.9 ± 4.5 | 51.3 ± 13.7 | 64.2 ± 10 | 95.5 | 55 ± 9 | 99.5 | 93 | 48 ± 2 | 89 ± 2 | – |
| C[C@]12CCC(=O)C=C1C=C[C@@H]1[C@@H]2[C@@H](O)C[C@@]2(C)[C@H]1CC[C@@]2(O)C#CCN1CCN(c2cc(N3CCCC3)nc(N3CCCC3)n2)CC1 [Example 1, 17α-[3-{4-[(2,6-bis(1-pyrrolidinyl)-4-pyrimidinyl]-1-piperazinyl}-1-propynyl]-Δ^4,6-androstadien-11β,17β-diol-3-one methanesulfonate] | 9.8 ± 11.2 | -10.6 ± 9.0 | 60.8 ± 3.0 | 46 ± 3 | 0 ± 18 | 19.5 ± 6 | 86 ± 2 | 16 ± 1 | 75 ± 4 | 97.5 ± 0.5 |
| CCN(CC)c1ccc(N(CC)CC)c(N2CCN(CC#C[C@]3(O)CC[C@H]4[C@@H]5C=C(C)C6=CC(=O)C=C[C@]6(C)[C@H]5[C@@H](O)C[C@@]43C)CC2)n1 [Example 4, 17α-[3-{4-[3,6-bis(diethylamino)-2-pyridyl]-1-piperazinyl}-1-propynyl]-6-methyl-Δ^1,4,6-androstatrien-11β,17β-diol-3-one] | 51.0 ± 12.4 | 48.5 ± 13.1 | 65.4 ± 10.1 | 100 | 51 ± 3 | 99.5 | 91 ± 2 | 49 ± 2 | 85 | – |
| CC1=C[C@@H]2[C@H]([C@@H](O)C[C@@]3(C)[C@H]2CC[C@@]3(O)C#CCN2CCN(c3cc(N4CCCC4)nc(N4CCCC4)n3)CC2)[C@@]2(C)C=CC(=O)C=C12 [Example 2] | 26.6 ± 3.9 | 28.0 ± 4.1 | 53.1 ± 7.8 | 11.3 ± 2 | 0 ± 2 | 0 ± 3 | 80 ± 1 | 22 ± 1.5 | 61 ± 1.5 | 85 ± 1.5 |
